By EC50 is commonly meant the concentration that produces a half-maximal response.

In assay [1] the test system is Sclerotinia sclerotiorum. Put plainly: Antifungal activity against carbendazim-resistant and dimethachlon-resistant Sclerotinia sclerotiorum CZ57-3 assessed as inhibition of mycelial growth after 2 days. In kind it is functional, organism-based. The following applies: CZ57-3, 48 h.
The subject of assay [2] is Sclerotinia sclerotiorum. Put plainly: Antifungal activity against carbendazim and dimethachlon-sensitive Sclerotinia sclerotiorum YZ116 assessed as inhibition of mycelial growth after 2 days. Format: functional, organism-based. Conditions: YZ116, 48 h.
Assay [3] relates to Sclerotinia sclerotiorum. The experiment in a line: Antifungal activity against carbendazim-resistant and dimethachlon-sensitive Sclerotinia sclerotiorum ZJ44 assessed as inhibition of mycelial growth after 2 days. The following applies: ZJ44, 48 h. Format: functional, organism-based.
Assay [4] has as its system Sclerotinia sclerotiorum. The experiment in a line: Antifungal activity against carbendazim-resistant and dimethachlon-sensitive Sclerotinia sclerotiorum TZ83 assessed as inhibition of mycelial growth after 2 days. Format: functional, organism-based. The following applies: TZ83, 48 h.
In assay [5] the test system is Sclerotinia sclerotiorum. The experiment in a line: Antifungal activity against Sclerotinia sclerotiorum in oilseed rape field assessed as disease control at 250/ha measured 1 week before harvest. Format: functional.
Assay [6] has as its system Sclerotinia sclerotiorum. The experiment in a line: Antifungal activity against carbendazim-resistant and dimethachlon-sensitive Sclerotinia sclerotiorum ZJ288 assessed as inhibition of mycelial growth after 2 days. In kind it is functional, organism-based. Conditions: ZJ288, 48 h.
Assay [7] deals with Sclerotinia sclerotiorum. Put plainly: Antifungal activity against Sclerotinia sclerotiorum in synthetic medium assessed as inhibition of mycelial growth after 2 days. In kind it is functional, organism-based. Conditions: 48 h.
Assay [8] concerns Sclerotinia sclerotiorum. Put plainly: Antifungal activity against carbendazim and dimethachlon-sensitive Sclerotinia sclerotiorum YZ112 assessed as inhibition of mycelial growth after 2 days. In kind it is functional, organism-based. Conditions: YZ112, 48 h.
For assay [9], the system named is Sclerotinia sclerotiorum. The experiment in a line: Antifungal activity against Sclerotinia sclerotiorum in oilseed rape field assessed as disease control at 80/ha measured 1 week before harvest. In kind it is functional.
Assay [10] deals with Sclerotinia sclerotiorum. Put plainly: Antifungal activity against carbendazim-resistant and dimethachlon-resistant Sclerotinia sclerotiorum CZ57-1 assessed as inhibition of mycelial growth after 2 days. Format: functional, organism-based. Conditions: CZ57-1, 48 h.
Assay [11] concerns Sclerotinia sclerotiorum. The experiment in a line: Antifungal activity against carbendazim-resistant and dimethachlon-sensitive Sclerotinia sclerotiorum SZ48 assessed as inhibition of mycelial growth after 2 days. In kind it is functional, organism-based. The following applies: SZ48, 48 h.
Assay [12] has as its system Sclerotinia sclerotiorum. Put plainly: Antifungal activity against carbendazim and dimethachlon-sensitive Sclerotinia sclerotiorum SZ62 assessed as inhibition of mycelial growth after 2 days. In kind it is functional, organism-based. Conditions: SZ62, 48 h.
For assay [13], the system named is Sclerotinia sclerotiorum. Put plainly: Antifungal activity against Sclerotinia sclerotiorum in czapek medium assessed as inhibition of mycelial growth after 2 days. In kind it is functional, organism-based. Conditions: 48 h.
The test system of assay [14] is Sclerotinia sclerotiorum. Put plainly: Antifungal activity against carbendazim-resistant and dimethachlon-resistant Sclerotinia sclerotiorum ZJ288-2 assessed as inhibition of mycelial growth after 2 days. In kind it is functional, organism-based. The following applies: ZJ288-2, 48 h.
Assay [15] deals with Sclerotinia sclerotiorum. The experiment in a line: Antifungal activity against carbendazim-resistant and dimethachlon-sensitive Sclerotinia sclerotiorum CZ57 assessed as inhibition of mycelial growth after 2 days. In kind it is functional, organism-based. Conditions: CZ57, 48 h.
Assay [16] deals with Sclerotinia sclerotiorum. Put plainly: Antifungal activity against Sclerotinia sclerotiorum in PDA plates assessed as inhibition of mycelial growth after 2 days. Format: functional, organism-based. Conditions: 48 h.
The test system of assay [17] is Sclerotinia sclerotiorum. The experiment in a line: Antifungal activity against carbendazim-resistant and dimethachlon-resistant Sclerotinia sclerotiorum ZJ288-1 assessed as inhibition of mycelial growth after 2 days. In kind it is functional, organism-based. The following applies: ZJ288-1, 48 h.
Assay [18] deals with Sclerotinia sclerotiorum. The experiment in a line: Antifungal activity against carbendazim-resistant and dimethachlon-sensitive Sclerotinia sclerotiorum ZJ47 assessed as inhibition of mycelial growth after 2 days. In kind it is functional, organism-based. The following applies: ZJ47, 48 h.
Assay [19] concerns Sclerotinia sclerotiorum. The experiment in a line: Antifungal activity against carbendazim-resistant and dimethachlon-resistant Sclerotinia sclerotiorum CZ57-2 assessed as inhibition of mycelial growth after 2 days. Format: functional, organism-based. The following applies: CZ57-2, 48 h.
For assay [20], the system named is Sclerotinia sclerotiorum. The experiment in a line: Antifungal activity against Sclerotinia sclerotiorum in oilseed rape field assessed as disease control at 187.5/ha measured 1 week before harvest. Format: functional.
The subject of assay [21] is Sclerotinia sclerotiorum. The experiment in a line: Antifungal activity against carbendazim and dimethachlon-sensitive Sclerotinia sclerotiorum YZ114 assessed as inhibition of mycelial growth after 2 days. Format: functional, organism-based. The following applies: YZ114, 48 h.
In assay [22] the test system is Sclerotinia sclerotiorum. Put plainly: Antifungal activity against carbendazim-resistant and dimethachlon-resistant Sclerotinia sclerotiorum ZJ288-3 assessed as inhibition of mycelial growth after 2 days. Format: functional, organism-based. The following applies: ZJ288-3, 48 h.
Assay [23] relates to Sclerotinia sclerotiorum. Put plainly: Antifungal activity against carbendazim-resistant and dimethachlon-sensitive Sclerotinia sclerotiorum YC35 assessed as inhibition of mycelial growth after 2 days. In kind it is functional, organism-based. The following applies: YC35, 48 h.
Assay [24] has as its system Sclerotinia sclerotiorum. Put plainly: Antifungal activity against carbendazim and dimethachlon-sensitive Sclerotinia sclerotiorum SZ47 assessed as inhibition of mycelial growth after 2 days. Conditions: SZ47, 48 h. Format: functional, organism-based.
The test system of assay [25] is Sclerotinia sclerotiorum. Put plainly: Antifungal activity against Sclerotinia sclerotiorum in oilseed rape field assessed as disease control at 125/ha measured 1 week before harvest. In kind it is functional.
Assay [26] concerns Sclerotinia sclerotiorum. Put plainly: Antifungal activity against Sclerotinia sclerotiorum in oilseed rape field assessed as disease control at 750/ha measured 1 week before harvest. In kind it is functional.
For assay [27], the system named is Sclerotinia sclerotiorum. Put plainly: Antifungal activity against Sclerotinia sclerotiorum in oilseed rape field assessed as disease control at 690/ha measured 1 week before harvest. In kind it is functional.

Values after ≈ are worked out from the molar mass of the structure shown.

As to `O=C(Nc1ccccc1-c1ccc(Cl)cc1)c1cccnc1Cl` [BOSCALID], the half-maximal effective concentration (EC50) in assay [1] came to 0.163 µg/mL (≈ 0.475 µM); in [2] it was 0.195 µg/mL (≈ 0.568 µM); in assay [3], 0.223 µg/mL (≈ 0.65 µM); in assay [4], 0.19 µg/mL (≈ 0.554 µM); in assay [6] it was 0.18 µg/mL (≈ 0.524 µM); in [7], 0.12 µg/mL (≈ 0.35 µM). Further, the EC50 in [8] was 0.211 µg/mL (≈ 0.615 µM); in [10], 0.115 µg/mL (≈ 0.335 µM); in assay [11], 0.168 µg/mL (≈ 0.489 µM); in assay [12] it was 0.17 µg/mL (≈ 0.495 µM); in [13] it was 0.13 µg/mL (≈ 0.379 µM); in assay [14], 0.126 µg/mL (≈ 0.367 µM). Besides, the EC50 in assay [15] is 0.186 µg/mL (≈ 0.542 µM); in [16] it was 0.17 µg/mL (≈ 0.495 µM); in assay [17], 0.195 µg/mL (≈ 0.568 µM); in assay [18] it was 0.188 µg/mL (≈ 0.548 µM); in assay [19] it was 0.183 µg/mL (≈ 0.533 µM); in assay [21], 0.195 µg/mL (≈ 0.568 µM). Also, the results for the EC50 in assay [22], in assay [23] and in [24] were 0.262 µg/mL (≈ 0.763 µM), 0.195 µg/mL (≈ 0.568 µM) and 0.181 µg/mL (≈ 0.527 µM), respectively. The Activity in assay [5] is 75.1%; in assay [9], 49.7%; in assay [20], 69%; in assay [25], 65.2%.

Consider `COC(=O)Nc1nc2ccccc2[nH]1` [CARBENDAZIM], for which the EC50 is more than 100 µg/mL in [1]; 0.137 µg/mL (≈ 0.717 µM) in assay [2]; more than 100 µg/mL in assay [3]; more than 100 µg/mL in [4]; 0.147 µg/mL (≈ 0.769 µM) in assay [6]; 0.106 µg/mL (≈ 0.554 µM) in [8]. For the same compound, the EC50 in [10] is more than 100 µg/mL; in assay [11], more than 100 µg/mL; in assay [12] it was 0.186 µg/mL (≈ 0.973 µM); in assay [14], more than 100 µg/mL; in assay [15] it was 0.168 µg/mL (≈ 0.879 µM); in assay [17], more than 100 µg/mL. In addition, the EC50 in assay [18] was more than 100 µg/mL; in [19], more than 100 µg/mL; in assay [21], 0.134 µg/mL (≈ 0.701 µM); in [22], more than 100 µg/mL; in assay [23] it was more than 100 µg/mL; in assay [24], 0.177 µg/mL (≈ 0.926 µM). Also, the Activity in assay [26] came to 18.9%.

With `O=C1CCC(=O)N1c1cc(Cl)cc(Cl)c1` [DIMETHACHLON], the EC50 in assay [1] was 125 µg/mL (≈ 511 µM); in assay [2] it was 0.346 µg/mL (≈ 1.42 µM); in assay [3], 0.317 µg/mL (≈ 1.3 µM); in assay [4], 0.335 µg/mL (≈ 1.37 µM); in assay [6], 0.397 µg/mL (≈ 1.63 µM); in assay [8], 0.401 µg/mL (≈ 1.64 µM). Also, the EC50 in [10] turned out to be 166 µg/mL (≈ 682 µM); in [11], 0.364 µg/mL (≈ 1.49 µM); in [12] it was 0.351 µg/mL (≈ 1.44 µM); in assay [14], 86.8 µg/mL (≈ 356 µM); in assay [15], 0.406 µg/mL (≈ 1.66 µM); in assay [17] it was 92.4 µg/mL (≈ 378 µM). Besides, the EC50 is 0.367 µg/mL (≈ 1.5 µM) in assay [18]; 152 µg/mL (≈ 622 µM) in assay [19]; 0.365 µg/mL (≈ 1.5 µM) in [21]; 68 µg/mL (≈ 279 µM) in assay [22]; 0.306 µg/mL (≈ 1.25 µM) in assay [23]; 0.321 µg/mL (≈ 1.32 µM) in assay [24]. Also, in assay [27], the Activity was found to be 44.6%.

These data come from ChEMBL document CHEMBL3045475, “Sensitivity of Sclerotinia sclerotiorum from oilseed crops to boscalid in Jiangsu Province of China” (Crop Prot, 2009).
